Source: ChEMBL document CHEMBL4396892, “Estrogen signaling: An emanating therapeutic target for breast cancer treatment” (Eur J Med Chem, 2019)

Tests used:
Estrogen receptor [1] = target: T1, Estrogen receptor (Homo sapiens, UniProt P03372)
T1 sequence (P03372 whole entry): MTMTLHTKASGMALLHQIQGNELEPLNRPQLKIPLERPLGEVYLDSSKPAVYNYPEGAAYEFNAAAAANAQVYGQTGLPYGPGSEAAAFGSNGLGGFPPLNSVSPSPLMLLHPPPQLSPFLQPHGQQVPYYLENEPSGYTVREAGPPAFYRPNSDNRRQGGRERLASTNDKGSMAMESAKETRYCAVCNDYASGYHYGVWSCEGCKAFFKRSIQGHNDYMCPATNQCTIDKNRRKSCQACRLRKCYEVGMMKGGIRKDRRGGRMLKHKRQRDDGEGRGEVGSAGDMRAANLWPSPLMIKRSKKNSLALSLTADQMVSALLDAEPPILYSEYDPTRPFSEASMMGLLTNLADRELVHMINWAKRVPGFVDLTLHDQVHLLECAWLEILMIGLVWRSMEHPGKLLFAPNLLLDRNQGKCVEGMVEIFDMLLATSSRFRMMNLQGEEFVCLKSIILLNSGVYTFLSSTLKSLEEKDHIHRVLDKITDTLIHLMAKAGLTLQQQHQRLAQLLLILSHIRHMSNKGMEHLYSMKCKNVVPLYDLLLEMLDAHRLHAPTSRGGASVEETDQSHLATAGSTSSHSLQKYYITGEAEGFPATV

Steryl-sulfatase [2] = target: T2, Steryl-sulfatase (Homo sapiens, UniProt P08842)
T2 sequence (P08842 whole entry): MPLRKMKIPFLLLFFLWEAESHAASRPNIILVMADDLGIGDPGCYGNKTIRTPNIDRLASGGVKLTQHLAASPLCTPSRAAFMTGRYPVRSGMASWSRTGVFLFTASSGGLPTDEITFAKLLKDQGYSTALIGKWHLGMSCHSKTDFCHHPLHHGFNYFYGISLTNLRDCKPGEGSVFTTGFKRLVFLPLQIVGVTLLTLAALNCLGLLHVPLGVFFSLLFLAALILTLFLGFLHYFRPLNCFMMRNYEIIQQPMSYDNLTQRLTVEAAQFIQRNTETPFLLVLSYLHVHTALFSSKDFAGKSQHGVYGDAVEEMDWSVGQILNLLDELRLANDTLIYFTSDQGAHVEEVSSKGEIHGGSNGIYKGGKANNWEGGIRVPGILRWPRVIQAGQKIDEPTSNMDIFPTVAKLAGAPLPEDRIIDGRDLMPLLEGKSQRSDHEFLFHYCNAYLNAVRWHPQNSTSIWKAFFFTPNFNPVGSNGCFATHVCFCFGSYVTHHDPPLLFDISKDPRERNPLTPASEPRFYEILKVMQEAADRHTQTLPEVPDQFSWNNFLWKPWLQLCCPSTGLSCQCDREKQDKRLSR

Steryl-sulfatase [3] = target: T2, Steryl-sulfatase; assay type: cell-based, HEK293
Steryl-sulfatase [4] = target: T2, Steryl-sulfatase; assay type: cell-based, HEK293; remark: listed apart in the source
Estrogen receptor beta = Estrogen receptor beta (Homo sapiens, UniProt Q92731); assay type: cell-based, MCF7
Sequence of Estrogen receptor beta (Q92731 whole entry): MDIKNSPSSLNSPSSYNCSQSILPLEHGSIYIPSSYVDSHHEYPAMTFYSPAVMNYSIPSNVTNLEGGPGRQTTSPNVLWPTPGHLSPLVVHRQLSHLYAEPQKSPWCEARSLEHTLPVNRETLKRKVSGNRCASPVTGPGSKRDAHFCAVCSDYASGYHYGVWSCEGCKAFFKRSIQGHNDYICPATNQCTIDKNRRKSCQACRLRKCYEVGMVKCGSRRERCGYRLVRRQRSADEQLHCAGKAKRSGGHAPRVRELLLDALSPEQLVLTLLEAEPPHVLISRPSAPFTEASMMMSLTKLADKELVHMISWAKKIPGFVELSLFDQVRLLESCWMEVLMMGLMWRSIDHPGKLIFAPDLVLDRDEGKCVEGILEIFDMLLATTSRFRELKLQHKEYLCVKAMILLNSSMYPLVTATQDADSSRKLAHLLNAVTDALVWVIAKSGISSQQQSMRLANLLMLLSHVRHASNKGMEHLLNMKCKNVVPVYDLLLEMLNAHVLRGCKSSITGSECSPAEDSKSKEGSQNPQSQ

Aromatase [5] = target: T3, Aromatase (Homo sapiens, UniProt P11511); assay type: microsomes, Placenta, Microsome
T3 sequence (P11511 whole entry): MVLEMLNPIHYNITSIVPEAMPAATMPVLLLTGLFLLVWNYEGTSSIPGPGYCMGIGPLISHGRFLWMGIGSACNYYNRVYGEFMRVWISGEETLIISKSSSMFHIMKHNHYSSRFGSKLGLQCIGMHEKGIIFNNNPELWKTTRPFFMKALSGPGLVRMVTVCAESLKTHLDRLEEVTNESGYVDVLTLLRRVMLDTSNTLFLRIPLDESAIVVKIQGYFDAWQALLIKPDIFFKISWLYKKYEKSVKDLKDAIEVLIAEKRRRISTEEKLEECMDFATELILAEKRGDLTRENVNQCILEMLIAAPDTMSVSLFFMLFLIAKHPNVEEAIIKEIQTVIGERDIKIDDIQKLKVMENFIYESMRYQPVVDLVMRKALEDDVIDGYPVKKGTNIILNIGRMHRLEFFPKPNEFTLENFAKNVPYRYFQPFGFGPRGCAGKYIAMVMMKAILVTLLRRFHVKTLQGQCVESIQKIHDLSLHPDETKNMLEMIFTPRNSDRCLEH

MCF7 = assay: cells; assay type: functional, cell-based; details: Homo sapiens, MCF7, 72 h
Steryl-sulfatase [6] = target: T2, Steryl-sulfatase; remark: listed apart in the source
Estrogen receptor [7] = target: T1, Estrogen receptor; remark: listed apart in the source
Aromatase [8] = target: T3, Aromatase
Steryl-sulfatase [9] = target: T2, Steryl-sulfatase; remark: listed apart in the source
Aromatase [10] = target: T3, Aromatase; assay type: microsomes, Placenta, Microsome; remark: listed apart in the source
Estrogen receptor [11] = target: T1, Estrogen receptor; assay type: cell-based, MCF7
[12] = target: Receptor tyrosine-protein kinase erbB-2 (Homo sapiens, UniProt P04626)
Sequence of Receptor tyrosine-protein kinase erbB-2 (P04626 whole entry): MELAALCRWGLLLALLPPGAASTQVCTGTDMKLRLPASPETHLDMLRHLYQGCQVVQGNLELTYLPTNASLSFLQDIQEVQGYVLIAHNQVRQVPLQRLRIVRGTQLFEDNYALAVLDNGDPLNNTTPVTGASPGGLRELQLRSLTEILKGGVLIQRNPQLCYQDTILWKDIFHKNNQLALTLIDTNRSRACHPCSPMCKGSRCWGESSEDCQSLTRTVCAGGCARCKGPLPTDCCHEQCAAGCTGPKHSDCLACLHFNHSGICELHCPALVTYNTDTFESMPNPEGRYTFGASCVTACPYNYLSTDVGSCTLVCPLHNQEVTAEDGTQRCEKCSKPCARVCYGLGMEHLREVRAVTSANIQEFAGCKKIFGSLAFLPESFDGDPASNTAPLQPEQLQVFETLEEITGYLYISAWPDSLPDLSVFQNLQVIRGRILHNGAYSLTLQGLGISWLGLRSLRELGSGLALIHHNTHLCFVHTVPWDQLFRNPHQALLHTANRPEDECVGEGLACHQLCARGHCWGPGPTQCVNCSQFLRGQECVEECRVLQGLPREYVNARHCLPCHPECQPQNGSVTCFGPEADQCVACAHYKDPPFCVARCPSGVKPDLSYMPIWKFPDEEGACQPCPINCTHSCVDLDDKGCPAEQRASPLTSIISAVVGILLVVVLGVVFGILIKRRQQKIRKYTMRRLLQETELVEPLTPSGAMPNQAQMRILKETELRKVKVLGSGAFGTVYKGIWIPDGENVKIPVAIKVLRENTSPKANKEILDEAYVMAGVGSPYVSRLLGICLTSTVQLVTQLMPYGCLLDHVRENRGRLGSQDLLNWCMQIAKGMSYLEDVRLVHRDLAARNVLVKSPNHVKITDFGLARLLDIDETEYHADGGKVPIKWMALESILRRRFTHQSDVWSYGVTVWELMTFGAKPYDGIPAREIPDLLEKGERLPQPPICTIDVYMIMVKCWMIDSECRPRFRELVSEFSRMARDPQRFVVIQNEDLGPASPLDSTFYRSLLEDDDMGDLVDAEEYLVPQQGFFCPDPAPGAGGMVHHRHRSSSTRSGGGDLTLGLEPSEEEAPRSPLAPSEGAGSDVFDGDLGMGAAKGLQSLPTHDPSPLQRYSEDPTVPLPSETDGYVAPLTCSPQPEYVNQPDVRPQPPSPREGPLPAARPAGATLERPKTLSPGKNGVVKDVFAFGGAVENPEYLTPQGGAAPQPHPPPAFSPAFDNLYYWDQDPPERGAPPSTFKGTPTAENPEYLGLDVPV

[13] = target: RAF proto-oncogene serine/threonine-protein kinase (Homo sapiens, UniProt P04049); assay type: cell-based, MCF7
Sequence of RAF proto-oncogene serine/threonine-protein kinase (P04049 whole entry): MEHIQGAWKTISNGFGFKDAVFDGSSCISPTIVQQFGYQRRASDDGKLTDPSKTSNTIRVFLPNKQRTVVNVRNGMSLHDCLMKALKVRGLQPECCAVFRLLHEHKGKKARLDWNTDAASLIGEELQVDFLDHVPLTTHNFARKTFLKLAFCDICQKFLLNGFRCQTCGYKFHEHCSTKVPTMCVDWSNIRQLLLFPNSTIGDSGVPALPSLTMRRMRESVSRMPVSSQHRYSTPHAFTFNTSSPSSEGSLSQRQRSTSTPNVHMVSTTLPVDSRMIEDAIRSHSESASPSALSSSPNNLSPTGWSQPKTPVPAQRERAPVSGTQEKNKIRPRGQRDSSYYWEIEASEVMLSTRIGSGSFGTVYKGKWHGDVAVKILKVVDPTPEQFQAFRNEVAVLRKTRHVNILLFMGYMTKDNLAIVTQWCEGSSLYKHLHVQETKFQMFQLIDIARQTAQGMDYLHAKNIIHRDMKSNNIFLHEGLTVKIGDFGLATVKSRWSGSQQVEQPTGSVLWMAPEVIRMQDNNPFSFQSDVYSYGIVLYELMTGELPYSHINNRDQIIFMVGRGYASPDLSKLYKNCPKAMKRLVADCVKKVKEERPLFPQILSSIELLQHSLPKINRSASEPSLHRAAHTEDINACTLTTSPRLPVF

Estrogen receptor [14] = target: T1, Estrogen receptor; remark: listed apart in the source
Steryl-sulfatase [15] = target: T2, Steryl-sulfatase; assay type: microsomes, Placenta, Microsome

O=c1cc(-c2ccccc2)nc2ccc(-c3ccccc3O)cn12
IC50 (Estrogen receptor [1]): 250000 nM

CC(C)(C#N)c1cc(CSc2ccc(OS(N)(=O)=O)cc2)cc(Cn2cncn2)c1
IC50 (Estrogen receptor [1]): 3.5 nM

N#Cc1ccc(N(Cc2ccc(OS(N)(=O)=O)cc2F)n2cnnc2)cc1
IC50 (Steryl-sulfatase [2]): 2.5 nM

CC(C)(C)c1ccc(C[C@]2(O)CC[C@H]3[C@@H]4CC=C5C[C@@H](OS(N)(=O)=O)CC[C@]5(C)[C@H]4CC[C@@]32C)cc1
IC50 (Steryl-sulfatase [3]): 14 nM
IC50 (Steryl-sulfatase [4]): 46 nM

CC/C(=C(/c1ccc(OCCN(C)C)cc1)c1ccc(OS(N)(=O)=O)cc1)c1ccccc1
Ki (Steryl-sulfatase [2]): 35900 nM

Cc1c(-c2ccc(O)cc2)nn(-c2ccc(O)cc2)c1-c1ccc(OCCN2CCCCC2)cc1
Ki (Estrogen receptor beta): 1800 nM

N#Cc1ccc(N(Cc2ccc(Br)cc2)n2cnnc2)cc1
IC50 (Aromatase [5]): 0.4 nM

CC(O)[C@@]12C[C@@H]1C[C@H]1[C@@H]3CCc4cc(O)ccc4[C@H]3CC[C@]12C (some centres undefined)
IC50 (MCF7): 3000 nM

CCCCCCCCCc1cc(=O)c2cc(OS(N)(=O)=O)ccc2o1
IC50 (Steryl-sulfatase [6]): 0.089 nM

CC/C(=C(\c1ccc(O)cc1)c1ccc(OCCNCCCCCCNC(=O)CCC2=[N+]3C(=CC4=CC=C(C)C4[B-]3(F)F)C=C2)cc1)c1ccccc1 (centres undefined)
IC50 (Estrogen receptor [7]): 30 nM

C[C@]12CCC(=O)C=C1C=C(CCc1ccccc1)[C@@H]1[C@@H]2CC[C@]2(C)C(=O)CC[C@@H]12
Ki (Aromatase [8]): 174 nM

O=[N+]([O-])c1ccc(N(Cc2ccc(Br)cc2)n2cnnc2)cc1
IC50 (Aromatase [5]): 0.12 nM

COc1c2c(c(O)c3c1C(=O)c1cc(C)c(O)cc1C3=O)-c1c(cc(/C=N/NC(=S)NC3CCCCC3)c(C(=O)O)c1O)CC2
IC50 (Steryl-sulfatase [9]): 460 nM
Ki (Steryl-sulfatase [9]): 350 nM

COc1ccc2c(c1)C(N)=C(Cc1ccncc1)C2=O
IC50 (Aromatase [10]): 100 nM

C/C=C1/[C@H](O)C[C@H]2[C@@H]3CCc4cc(OC)ccc4[C@H]3CC[C@]12C
IC50 (Estrogen receptor [11]): 5490 nM

Oc1ccc2c(c1)O[C@@H](c1ccccc1)C[C@@H]2n1ccnc1
IC50 (Aromatase [8]): 41 nM

C[C@]12CC[C@@H]3c4ccc(C(F)(F)S(N)(=O)=O)cc4CC[C@H]3[C@@H]1CCC2=O
Ki (Steryl-sulfatase [2]): 28000 to 82000 nM

CO[C@H]1/C=C\C=C(/C)C(=O)NC2=CC(=O)C(NC/C=C/C[C@@H]3C[C@H]4[C@@H]5CCc6cc(O)ccc6[C@H]5CC[C@]4(C)[C@H]3O)=C(C[C@@H](C)C[C@H](OC)[C@H](O)[C@@H](C)/C=C(\C)[C@@H]1OC(N)=O)C2=O (stereo in doubt)
IC50 [12]: 100 nM
IC50 [13]: 1500 nM
IC50 (Estrogen receptor [14]): 80 nM

CC(C)(C)c1cc(=O)c2cc(OS(N)(=O)=O)ccc2o1
IC50 (Steryl-sulfatase [6]): 0.047 nM

CCCCCCCCCCCCC(=O)NCCc1ccc(OS(N)(=O)=O)cc1
IC50 (Steryl-sulfatase [2]): 55.8 nM

C[C@]12CC[C@@H]3c4ccc(NC(=O)C(F)(F)F)cc4CC[C@H]3[C@@H]1CCC2=O
IC50 (Steryl-sulfatase [2]): 8700 nM

CCCCCCCCCCCCCC(=O)NCc1ccc(OS(N)(=O)=O)cc1
IC50 (Steryl-sulfatase [15]): 72 nM

N#Cc1ccc2sc(C34CC5CC(CC(C5)C3)C4)cc(=O)c2c1
IC50 (Steryl-sulfatase [2]): 180 nM

CC/C(=C(\c1ccc(OCCN(C)C)cc1)c1ccc(OS(N)(=O)=O)cc1)c1ccccc1
Ki (Steryl-sulfatase [2]): > 500000 nM

O=c1oc2cc(OP(=O)(O)O)ccc2c2c1CCCC2
IC50 (Steryl-sulfatase [2]): 37800 nM
